Patent publication US11198715B2, “Selective Bfl-1 peptides” (MASSACHUSETTS INSTITUTE OF TECHNOLOGY, priority 2016, dated 2021)

Columns and labels:
Bcl-xL = assay: Ki (nM) | Bcl-xL
Bfl-1 = target: T1, Bfl-1 (Homo sapiens, UniProt Q16548); assay: Competition fluorescence polarization (anisotropy) binding assay with fluoresceinated Bim; settings: for selective binding to Bfl-1 over other Bcl-2 family proteins: Ki from competition assays with fluoresceinated Bim; for affinity for Bfl-1 relative to PUMA / specificity for Bfl-1 relative to PUMA: inhibition constants, 23-residue peptides (FIG. 2I)
T1 sequence (Q16548 1-175): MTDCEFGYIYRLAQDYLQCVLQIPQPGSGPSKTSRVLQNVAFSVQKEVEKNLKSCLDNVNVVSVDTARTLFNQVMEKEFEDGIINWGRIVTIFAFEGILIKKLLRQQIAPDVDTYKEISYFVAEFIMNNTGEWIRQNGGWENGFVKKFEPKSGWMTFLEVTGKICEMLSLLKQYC
Method: Fluorescence polarization assays were performed in order to measure the binding abilities of the peptide constructs. Competition fluorescence polarization experiments were performed by titrating 10-0 μM of unlabeled peptide into 50 nM receptor with […] fluorecinated Bim (fluorescein-[…]) in FP buffer (25 mM Tris pH 7.8, 50 mM NaCl, 1 mM EDTA, 0.001% v/v Triton-X, 5% DMSO). C-myc-tagged receptors were used for all Bcl-2 homologs. Plates were mixed at room temperature for 3 h. Experiments were done in triplicate.
Ki values were obtained from the competition assays with fluoresceinated Bim peptide.

[1] = tested on: BCR-ABL-expressing B-ALL cell lines engineered to depend on Bcl-2, Bcl-xL, Mcl-1 or Bfl-1; assay: Whole-cell BH3 profiling (JC-1 mitochondrial depolarization, MOMP); format: cell-based; parameters: cross reactivity in non-Bfl-1 dependent lines: dose or concentration left out as unconfirmed; settings: JC-1 readout; for mitochondrial depolarization in cell lines dependent on Mcl-1, Bcl-2, Bcl-xL or Bfl-1: FS peptides at 100 nM
Method: A whole-cell BH3 profiling assay was used to test the specificity of the peptide constructs in several cell lines with known dependencies on anti-apoptotic proteins, including Bcl-2, Mcl-1, Bcl-xL, or Bfl-1. The creation and characterization of the BCR-ABL-expressing B-lineage acute lymphoblastic leukemia suspension cell lines with engineered dependencies on human versions of anti-apoptotic genes is detailed in Koss et al., Oncotarget, 7:11500-11511, 2016. Cells were grown in RPMI (Life Technologies, Carlsbad, Calif.) with 10% fetal bovine serum, 2 mM L-glutamine, 10 mL/L 100× Pen/Strep (Life Technologies #15140122), 25 mM HEPES and 10 mL/L 100×NEAA (Life Technologies, 11140050). The adherent cell lines PC-3 (RRID: CVCL_0035) and SF295 (RRID: CVCL_1690) are from the NCI60 panel (Lorenzi et al., 2009) and were grown in RPMI (Life Technologies) with 10% fetal bovine serum, 2 mM L-glutamine and 10 mL/L 100× Pen/Strep (Life Technologies #15140122). Cell line identities were confirmed by STR profiling. The Lookout Mycoplasma PCR detection kit (Sigma) was used to detect mycoplasma infection. Mycoplasma was only detected in the PC-3 cell line, and internal controls were used to account for this phenotype.
Peptides were titrated by serial dilution in MEB buffer (150 mM Mannitol, 10 mM HEPES-KOH pH 7.5, 50 mM KCl, 0.02 mM EGTA, 0.02 mM EDTA, 0.1% BSA and 5 mM Succinate) containing 20 […], […] and 10 mM 2-mercaptoethanol in 384-well plates. Controls for no depolarization (1% DMSO) and complete depolarization with the mitochondrial oxidative phosphorylation uncoupler FCCP ([…]) were included for data normalization. Cells were suspended at 1.67×10^6 cells/mL in MEB. […] was added to each well containing […] of treatment solution. Fluorescence emission was measured every 5 min for 3 hours at […] with 525 nm excitation on a Tecan Safire2. To produce percent depolarization, the area under the resultant curve was calculated and normalized to the assay controls. Peptide titration curves were fit to sigmoidal dose-response curves using Graphpad PRISM seven to obtain EC50 values.
As depicted in FIG. 9A, in this assay, permeabilized cells were contacted with increasing doses of the BH3 peptides, and mitochondrial outer membrane permeabilization (MOMP) was monitored using a voltage-sensitive dye (JC-1). The apoptotic sensitivity of BCR-ABL-expressing B-lineage acute lymphoblastic leukemia (B-ALL) cell lines engineered to depend on Bcl-2, Bcl-xL, Mcl-1 or Bfl-1 overexpression for survival.

[2] = tested on: BCR-ABL-expressing B-ALL cell lines engineered to depend on Bcl-2, Bcl-xL, Mcl-1 or Bfl-1; assay: iBH3 profiling, cytochrome c release; format: cell-based; parameters: cross reactivity in non-Bfl-1 dependent lines: dose or concentration left out as unconfirmed
Method: As an additional test for on-pathway activity, cytochrome c release was measured in the same engineered cell lines in response to peptide treatment, using iBH3 profiling (see Ryan et al., Biol. Chem., 397:671-678, 2016). Cells were suspended in MEB buffer (150 mM mannitol, 50 mM KCl, 10 mM HEPES, 5 mM succinic acid, […], 0.1% BSA, final pH 7.4) at 0.5*10^6 cells/mL (adherent lines) or 2*10^6 cells/mL (suspension lines). Cell suspension was added to a 384 non-binding well plate ([…]) containing peptides at 2× final concentration in MEB with […]. Plates were incubated at 25° C. for 1 hour. To terminate exposure, […] in PBS was added to each well, plates were incubated for 10 minutes before addition of […] (1.7 M Tris, 1.25 M glycine, pH 9.1) for 5 min. […] The median fluorescence of the cytochrome c channel of Hoechst positive singlets was recorded by an IntelliCyt iQue Screener Plus. Cytochrome c release was determined by normalizing the median fluorescence intensity (MFI) data to positive control wells (Alamethicin) and negative control wells (DMSO) as follows: Cytochrome release=1−(MFIsample−MFIAlamethicin)/(MFIDMSO−MFIAlamethicin)

| Substance | Ki (Bcl-xL) [nM] | selective binding to Bfl-1 over other Bcl-2 family proteins (Bfl-1) | affinity for Bfl-1 relative to PUMA (Bfl-1) | specificity for Bfl-1 relative to PUMA (Bfl-1) | specificity for Bfl-1 relative to Bcl-xL, Bcl-2, Bcl-w and Mcl-1 (Bfl-1; ratio of Ki values) | mitochondrial depolarization in cell lines dependent on Mcl-1, Bcl-2, Bcl-xL or Bfl-1 [1] | potency in cytochrome c release, comparison [2] | cross reactivity in non-Bfl-1 dependent lines ([2]; cytochrome c release) | cross reactivity in non-Bfl-1 dependent lines [1] | potency of mitochondrial depolarization, comparison [1] |
| --- | --- | --- | --- | --- | --- | --- | --- | --- | --- | --- |
| Ac-QWVREIAAGLRLAADNVNAQLER-NH2 [FS1] | 2720 ± 713 | bound selectivity to Bfl-1 over other Bcl-2 family proteins | reduced affinity for Bfl-1 relative to PUMA | significantly increased specificity | at least 150 fold | promoted depolarization only in Bfl-1 dependent cells |  |  |  |  |
| QWIREIAAGLRRFADILNAQVER [FS3] |  | bound selectivity to Bfl-1 over other Bcl-2 family proteins | reduced affinity for Bfl-1 relative to PUMA | significantly increased specificity |  | promoted depolarization only in Bfl-1 dependent cells | more potently than FS1 or FS2 | significant cross reactivity | significant cross reactivity | more potently than FS1 or FS2 |
| QWVREIAAGLRRAADDVNAQVER [FS2] |  | bound selectivity to Bfl-1 over other Bcl-2 family proteins | reduced affinity for Bfl-1 relative to PUMA | significantly increased specificity |  | promoted depolarization only in Bfl-1 dependent cells |  |  |  |  |
